Reference: patent publication US6962929B2, “Pentafluorobenzenesulfonamides and analogs” (Tularik Inc., priority 1996, dated 2005)

tested on: tubulin; test: Irreversible labeling of cellular protein by tritiated compounds in MCF7 cells; assay type: binding; details: tritiated form; human breast carcinoma MCF7 cells
Text: Preferred compounds display specific toxicity to various types of cells. Certain compounds and compositions of the present invention exert their cytotoxic effects by interacting with cellular tubulin. For certain preferred compounds and compositions of the present invention, that interaction is covalent and irreversible. […] This protein is a key component of microtubules, which constitute the cytoskeleton and also play critical roles in many other aspects of the cell's physiology, including cell division. The labeling of tubulin by the subject preferred compounds is also shown to be dose-dependent. The site of covalent binding on tubulin is identified as Cysteine-239 on the β-tubulin chain. The same Cys-239 residue is selectively covalently modified when present in a wide variety of Cys-239 containing β-tubulin petides (e.g. Ser-234 to Met-267) provided in vitro or in vivo. One embodiment of these preferred compounds provides the binding mechanism shown in Scheme IV, namely, displacement of the para-fluorine atom by the thiol group of Cys-239.

SMILES	labeling of cellular protein
[3H]c1cc(OC)c(F)cc1NS(=O)(=O)c1c(F)c(F)c(F)c(F)c1F [Example 72, 4-[3H]-1-Fluoro-2-methoxy-5-pentafluorosulfonamidobenzene]	irreversible labeling of only one detectable cellular protein, which was found to be tubulin

tested on: not given; test: not given; details: not given

SMILES	melting point [°C]
COc1ccc(N(CCCCCO)S(=O)(=O)c2c(F)c(F)c(F)c(F)c2F)cc1O [Example 37, 2-Hydroxy-1-methoxy-4-(N-(5-hydroxypentyl)-pentafluorophenylsulfonamido)benzene]	118
COc1ccc(N(CCCCO)S(=O)(=O)c2c(F)c(F)c(F)c(F)c2F)cc1 [Example 56, 1-(N-(4-hydroxybutyl)pentafluorophenylsulfonamido)-4-methoxybenzene]	88 to 90
COc1ccc(N(CC(O)CO)S(=O)(=O)c2c(F)c(F)c(F)c(F)c2F)cc1 (stereo not drawn) [Example 53, 1-(N-(2,3-Dihydroxypropyl)pentafluorophenylsulfonamido)-4-methoxybenzene]	130 to 131
C=CCN(c1ccc(OC)cc1)S(=O)(=O)c1c(F)c(F)c(F)c(F)c1F [Example 50, 4-Methoxy-1-(N-(2-propenyl)pentafluorophenylsulfonamido)benzene]	59 to 60
C=CCCN(c1ccc(OC)cc1)S(=O)(=O)c1c(F)c(F)c(F)c(F)c1F [Example 51, 1-(N-(3-Butenyl)pentafluorophenylsulfonamido)-4-methoxybenzene]	64 to 66
COc1ccc(N(CCC(O)CO)S(=O)(=O)c2c(F)c(F)c(F)c(F)c2F)cc1 (stereo not drawn) [Example 54, 1-(N-(3,4-Dihydroxybutyl)pentafluorophenylsulfonamido)-4-methoxybenzene]	126 to 128
COc1ccc(N(CCCCCO)S(=O)(=O)c2c(F)c(F)c(F)c(F)c2F)cc1 [Example 57, 4-Methoxy-1-(N-(5-hydroxypentyl)pentafluorophenylsulfonamido)benzene]	96 to 97
COc1ccc(N(CCCC(O)CO)S(=O)(=O)c2c(F)c(F)c(F)c(F)c2F)cc1 (stereo not drawn) [Example 55, 1-(N-(4,5-Dihydroxypentyl)pentafluorophenylsulfonamido)-4-methoxybenzene]	116 to 118

Now from value to molecule:

melting point [°C]	SMILES
144 to 145	O=S(=O)(Nc1ccc(Cl)nc1)c1c(F)c(F)c(F)c(F)c1F [Example 36, 2-Chloro-5-pentafluorophenylsulfonamidopyridine]
142 to 143	COc1ccc(NS(=O)(=O)c2c(F)c(F)c(F)c(F)c2F)cc1N [Example 59, 3-Amino-4-methoxy-1-pentafluorophenylsulfonamidobenzene]
109	COc1cc(Br)c(NS(=O)(=O)c2c(F)c(F)c(F)c(F)c2F)cc1F [Example 41, 1-Bromo-4-fluoro-5-methoxy-2-pentafluorophenylsulfonamidobenzene]
121 to 123	COc1ccc(NS(=O)(=O)c2c(F)c(F)c(F)c(F)c2F)cc1C(F)(F)F [Example 49, 4-Methoxy-1-pentafluorophenylsulfonamido-3-trifluoromethylbenzene]
95 to 97	COc1ccc(NS(=O)(=O)c2c(F)c(F)c(F)c(F)c2F)cc1[N+](=O)[O-] [Example 58, 4-Methoxy-3-nitro-1-pentafluorophenylsulfonamidobenzene]
102 to 103	COc1ccc(NS(=O)(=O)c2c(F)c(F)c(F)c(F)c2F)cc1 [Example 8, 4-Methoxy-1-pentafluorophenylsulfonamidobenzene]

tested on: HeLa cells; test: Inhibition of in vitro growth of HeLa cells (Alamar Blue uptake); assay type: cell-based, human; details: Homo sapiens; concentration required to inhibit by 50% the uptake of Alamar Blue by HeLa cell cultures
Protocol: Compounds were evaluated for their ability to inhibit in vitro the growth of HeLa cells, an immortal cell line derived from a human cervical carcinoma commonly used to evaluate the cytotoxicity of potential therapeutic agents. The following data reflect the cytotoxicity of selected examples of the present invention. The values given represent the concentration of test compound required to inhibit by 50% the uptake of Alamar Blue (Biosource International, Camarillo, Calif.) by HeLa cell cultures, which correlates directly with the overall levels of cellular metabolism in the culture, and is generally accepted as an appropriate marker of cell growth. The test was conducted according to the method of S. A. Ahmed et al. (1994) J. Immunol. Methods 170: 211-224.

SMILES	IC50 [µM]
O=S(=O)(Nc1ccc(N2CCOCC2)cc1)c1c(F)c(F)c(F)c(F)c1F [Example 25, 4-(1-Morpholino)-1-pentafluorophenylsulfonamidobenzene]	10
CN(C)c1ccc(N(C)S(=O)(=O)c2c(F)c(F)c(F)c(F)c2F)cc1 [Example 17, 4-(N,N-Dimethylamino)-1-(N-methylpentafluorophenylsulfonanido)benzene]	10
COc1ccc(NS(=O)(=O)c2c(F)c(F)c(F)c(F)c2F)cc1F [Example 7, 2-Fluoro-1-methoxy-4-pentafluorosulfonamidobenzene]	< 0.05
COc1ccc(N(C)S(=O)(=O)c2c(F)c(F)c(F)c(F)c2F)cc1F [Example 30, 2-Fluoro-1-methoxy-4-(N-methylpentafluorophenylsulfonamido)benzene]	1.5
CCN(CC)c1ccc(NS(=O)(=O)c2c(F)c(F)c(F)c(F)c2F)cc1 [Example 12, 4-(N,N-Diethylamino)-1-pentafluorophenylsulfonamidobenzene]	0.15

Further lines, results first:

IC50 [µM]	SMILES
0.5	COc1ccc(NS(=O)(=O)c2c(F)c(F)c(F)c(F)c2F)cc1Br [Example 31, 2-Bromo-1-methoxy4-pentafluorophenylsulfonamidobenzene]
10	O=S(=O)(Nc1ccc2c(c1)OCO2)c1c(F)c(F)c(F)c(F)c1F [Example 4, 1,2-Methylenedioxy-4-pentafluorophenylsulfonamidobenzene]
1	O=S(=O)(Nc1cccc(O)c1)c1c(F)c(F)c(F)c(F)c1F [Example 9, 3-Hydroxy-1-pentafluorophenylsulfonamidobenzene]
0.15	CN(C)c1cccc(NS(=O)(=O)c2c(F)c(F)c(F)c(F)c2F)c1 [Example 2, 3-(N,N-Dimethylamino)-1-pentafluorophenylsulfonamidobenzene]
1.5	O=S(=O)(Nc1ccc2c(c1)OCCO2)c1c(F)c(F)c(F)c(F)c1F [Example 3, 1,2-Ethylenedioxy-4-pentafluorophenylsulfonamidobenzene]
< 0.05	COc1ccc(NS(=O)(=O)c2c(F)c(F)c(F)c(F)c2F)cc1O [Example 6, 2-Hydroxy-1-methoxy-4-pentafluorophenylsulfonamidobenzene]
1	O=S(=O)(Nc1ccc2[nH]ncc2c1)c1c(F)c(F)c(F)c(F)c1F [Example 15, 5-Pentafluorophenylsulfonamidoindazole]
< 0.05	CN(C)c1ccc(NS(=O)(=O)c2c(F)c(F)c(F)c(F)c2F)cc1 [Example 1, 4-(N,N-Dimethylamino)-1-pentafluorophenylsulfonamidobenzene]
< 0.05	COc1ccc(NS(=O)(=O)c2c(F)c(F)c(F)c(F)c2F)cc1 [Example 8, 4-Methoxy-1-pentafluorophenylsulfonamidobenzene]

same assay, conditions: concentration required to inhibit by 50% the uptake of Alamar Blue by HeLa cell cultures

SMILES	IC50 [µM]
COc1ccc(NS(=O)(=O)c2c(F)c(F)c(F)c(F)c2F)cc1Cl [Example 32, 2-Chloro-1-methoxy-4-pentafluorophenylsulfonamidobenzene]	0.1
